Assay [1] deals with T1, SMARCA2-HiBiT (Homo sapiens, UniProt P51531).
T1 construct: SMARCA2-HiBiT knock-in Hela monoclonal cell (CS302366); host or cells: HeLa monoclonal knock-in line (CRISPR HiBiT knock-in at the endogenous locus, heterozygous)
The assay is described as follows: SMARCA2 HiBiT degradation assay in HeLa cells. The conditions noted are these: 18 hours incubation; for DC50: read-out: HeLa_HiBit-SM2 DC50; for Dmax: HeLa, read-out: HeLa-HiBit-SM2 Dmax (%). It is filed as cell-based. The gist of the method: (§1)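 HeLa monoclonal lines with heterozygous HiBiT knock-in were seeded at 2500 cells/well in EMEM with 10% FBS and treated with compound for 18 h at 37 °C. Remaining tagged protein was measured by Nano-Glo HiBiT lytic luminescence after 30–60 min at RT, and values came from curve fitting.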
A general note: HiBiT is a short tag that completes a luciferase, so light tracks the accessible tagged protein.

The target in assay [2] is T2, SMARCA4-HiBiT (Homo sapiens, UniProt P51532).
T2 construct: SMARCA4-HiBiT knock-in Hela monoclonal cell (CS3023226); host or cells: HeLa monoclonal knock-in line (CRISPR HiBiT knock-in at the endogenous locus, heterozygous)
The assay is described as follows: SMARCA4 HiBiT degradation assay in HeLa cells. It is filed as cell-based. Particulars: 18 hours incubation; for DC50: read-out: HeLa-HiBit-SM4 DC50; for Dmax: HeLa, read-out: HeLa-HiBit-SM4 Dmax (%). The gist of the method: as §1

T1 sequence (P51531 whole entry): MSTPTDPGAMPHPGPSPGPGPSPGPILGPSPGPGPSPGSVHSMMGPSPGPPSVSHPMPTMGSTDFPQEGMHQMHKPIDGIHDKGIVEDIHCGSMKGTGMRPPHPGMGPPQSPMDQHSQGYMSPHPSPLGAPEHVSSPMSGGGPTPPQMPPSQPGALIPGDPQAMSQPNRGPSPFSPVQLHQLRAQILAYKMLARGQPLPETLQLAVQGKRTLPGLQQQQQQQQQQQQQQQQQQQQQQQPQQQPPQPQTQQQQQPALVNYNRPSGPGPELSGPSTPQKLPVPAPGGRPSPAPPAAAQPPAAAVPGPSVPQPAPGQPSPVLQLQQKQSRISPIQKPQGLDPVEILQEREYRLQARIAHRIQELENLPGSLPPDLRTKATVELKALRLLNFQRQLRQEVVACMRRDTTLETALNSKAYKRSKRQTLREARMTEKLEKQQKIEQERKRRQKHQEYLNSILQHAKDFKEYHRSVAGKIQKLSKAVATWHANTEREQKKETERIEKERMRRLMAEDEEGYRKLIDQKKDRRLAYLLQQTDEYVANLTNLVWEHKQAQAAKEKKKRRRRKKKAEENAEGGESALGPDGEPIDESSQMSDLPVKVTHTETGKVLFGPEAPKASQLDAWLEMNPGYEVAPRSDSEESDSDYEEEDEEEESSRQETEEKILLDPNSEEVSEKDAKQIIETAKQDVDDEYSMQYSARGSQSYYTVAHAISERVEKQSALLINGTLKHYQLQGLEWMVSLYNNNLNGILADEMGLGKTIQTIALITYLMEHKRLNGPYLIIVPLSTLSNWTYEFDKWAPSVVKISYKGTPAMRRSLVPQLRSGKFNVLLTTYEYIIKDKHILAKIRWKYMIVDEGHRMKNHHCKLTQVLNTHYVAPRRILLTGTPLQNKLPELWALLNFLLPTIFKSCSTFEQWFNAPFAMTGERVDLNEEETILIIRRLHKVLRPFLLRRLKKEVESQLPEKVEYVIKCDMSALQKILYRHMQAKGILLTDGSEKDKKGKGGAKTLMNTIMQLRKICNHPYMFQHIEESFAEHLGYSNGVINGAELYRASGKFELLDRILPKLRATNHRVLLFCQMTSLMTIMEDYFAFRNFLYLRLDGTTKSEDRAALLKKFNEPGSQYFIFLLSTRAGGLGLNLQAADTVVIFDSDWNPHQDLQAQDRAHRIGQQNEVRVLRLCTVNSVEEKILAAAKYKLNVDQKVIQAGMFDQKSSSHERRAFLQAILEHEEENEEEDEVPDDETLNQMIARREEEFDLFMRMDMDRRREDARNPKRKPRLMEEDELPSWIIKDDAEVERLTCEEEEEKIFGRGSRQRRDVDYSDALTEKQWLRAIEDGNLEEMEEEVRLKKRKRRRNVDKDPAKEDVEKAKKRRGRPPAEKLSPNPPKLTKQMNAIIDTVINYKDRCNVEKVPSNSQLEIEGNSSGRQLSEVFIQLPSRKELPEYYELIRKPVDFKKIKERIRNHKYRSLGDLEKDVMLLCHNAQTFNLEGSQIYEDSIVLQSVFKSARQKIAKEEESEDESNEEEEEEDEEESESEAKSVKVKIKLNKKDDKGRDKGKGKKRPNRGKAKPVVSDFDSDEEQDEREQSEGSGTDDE
T2 sequence (P51532 whole entry): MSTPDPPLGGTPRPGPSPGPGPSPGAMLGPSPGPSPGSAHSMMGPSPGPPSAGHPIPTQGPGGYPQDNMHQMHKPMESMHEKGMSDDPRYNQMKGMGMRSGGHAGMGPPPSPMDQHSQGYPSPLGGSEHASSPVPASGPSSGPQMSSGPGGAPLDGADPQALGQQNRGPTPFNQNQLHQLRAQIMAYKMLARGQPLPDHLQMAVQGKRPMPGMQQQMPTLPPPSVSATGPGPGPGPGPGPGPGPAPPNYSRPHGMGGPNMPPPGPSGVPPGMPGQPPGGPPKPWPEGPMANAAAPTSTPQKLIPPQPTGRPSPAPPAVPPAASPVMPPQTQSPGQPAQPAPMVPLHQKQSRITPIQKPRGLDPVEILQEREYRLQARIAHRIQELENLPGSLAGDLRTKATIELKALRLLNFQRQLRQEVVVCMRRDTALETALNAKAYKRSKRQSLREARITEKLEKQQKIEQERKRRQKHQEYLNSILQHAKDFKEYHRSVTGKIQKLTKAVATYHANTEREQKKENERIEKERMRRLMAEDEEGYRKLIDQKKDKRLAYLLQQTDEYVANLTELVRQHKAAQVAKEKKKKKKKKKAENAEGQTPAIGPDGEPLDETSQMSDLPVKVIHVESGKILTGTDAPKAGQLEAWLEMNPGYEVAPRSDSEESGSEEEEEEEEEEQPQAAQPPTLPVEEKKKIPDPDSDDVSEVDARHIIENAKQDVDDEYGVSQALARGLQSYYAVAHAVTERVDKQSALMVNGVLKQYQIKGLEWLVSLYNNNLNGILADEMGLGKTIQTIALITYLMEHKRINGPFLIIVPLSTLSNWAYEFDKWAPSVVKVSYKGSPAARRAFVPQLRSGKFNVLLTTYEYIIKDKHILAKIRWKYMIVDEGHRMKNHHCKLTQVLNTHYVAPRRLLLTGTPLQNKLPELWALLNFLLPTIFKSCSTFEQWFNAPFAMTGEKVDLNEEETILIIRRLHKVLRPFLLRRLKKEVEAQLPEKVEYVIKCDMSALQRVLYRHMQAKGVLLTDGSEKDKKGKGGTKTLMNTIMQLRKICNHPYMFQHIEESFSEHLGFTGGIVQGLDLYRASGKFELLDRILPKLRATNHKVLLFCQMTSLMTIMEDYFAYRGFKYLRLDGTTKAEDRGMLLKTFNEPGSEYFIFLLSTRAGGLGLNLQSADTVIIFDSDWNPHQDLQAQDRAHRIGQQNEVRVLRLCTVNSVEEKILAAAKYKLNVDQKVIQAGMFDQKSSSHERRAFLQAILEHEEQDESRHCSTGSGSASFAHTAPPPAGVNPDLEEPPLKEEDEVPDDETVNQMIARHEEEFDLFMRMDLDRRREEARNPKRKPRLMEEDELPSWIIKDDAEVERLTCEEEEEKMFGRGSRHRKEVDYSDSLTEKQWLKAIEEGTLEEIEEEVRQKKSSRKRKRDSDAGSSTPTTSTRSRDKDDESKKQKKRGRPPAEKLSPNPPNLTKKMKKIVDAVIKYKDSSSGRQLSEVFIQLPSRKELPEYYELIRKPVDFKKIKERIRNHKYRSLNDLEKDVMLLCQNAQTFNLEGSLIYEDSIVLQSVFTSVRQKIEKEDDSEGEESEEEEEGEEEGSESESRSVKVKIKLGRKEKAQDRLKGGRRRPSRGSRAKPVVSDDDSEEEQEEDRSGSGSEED

In the case of `O=C1CCC(N2C(=O)c3ccc(N4CCC(CCN5CCC(CN6CCN7c8cc(-c9ccccc9O)nnc8NC[C@H]7C6)CC5)CC4)cc3C2=O)C(=O)N1` (stereo partly drawn) [Example 224, 2-(2,6-dioxopiperidin-3-yl)-5-(4-(2-(4-(((S)-2-(2-hydroxyphenyl)-5,6,6a,7,9,10-hexahydro-8H-pyrazino[1′,2′:4,5]pyrazino[2,3-c]pyridazin-8-yl)methyl)piperidin-1-yl)ethyl)piperidin-1-yl)isoindoline-1,3-dione], the DC50 in assay [1] and in assay [2] was below 10 nM each time. Besides, the maximal degradation (Dmax) in assay [1] and in assay [2] was 75 to 85% throughout.

For the compound `COC1(CN2CCN3c4cc(-c5ccccc5O)nnc4NC[C@H]3C2)CCN(CC2CCN(c3ccc4c(c3)CN(C3CCC(=O)NC3=O)C4=O)CC2)CC1` (stereo partly drawn) [Example 251, 3-(5-(4-((4-(((S)-2-(2-hydroxyphenyl)-5,6,6a,7,9,10-hexahydro-8H-pyrazino[1′,2′:4,5]pyrazino[2,3-c]pyridazin-8-yl)methyl)-4-methoxypiperidin-1-yl)methyl)piperidin-1-yl)-1-oxoisoindolin-2-yl)piperidine-2,6-dione], in assay [1], the half-maximal degradation concentration (DC50) was below 10 nM and the Dmax was above 85%. Besides, in assay [2], the 50% degradation concentration (DC50) was below 10 nM and the Dmax was above 85%.

Turning to `O=C1CCC(N2C(=O)c3ccc(Nc4cnn(CCN5CCC(N6CCN7c8cc(-c9ccccc9O)nnc8NC[C@H]7C6)CC5)c4)cc3C2=O)C(=O)N1` (stereo partly drawn) [Example 245, 2-(2,6-dioxopiperidin-3-yl)-5-((1-(2-(4-((S)-2-(2-hydroxyphenyl)-5,6,6a,7,9,10-hexahydro-8H-pyrazino[1′,2′:4,5]pyrazino[2,3-c]pyridazin-8-yl)piperidin-1-yl)ethyl)-1H-pyrazol-4-yl)amino)isoindoline-1,3-dione], in assay [1], the DC50 is below 10 nM and the maximal degradation (Dmax) was 50 to 75%. Further, in assay [2], the half-maximal degradation concentration (DC50) lay within 10 to 100 nM and the Dmax lay in the range of 50 to 75%.

Regarding `O=C1CCC(N2Cc3ccc(N4CCC(CN5CCN(C(=O)N6CCN7c8cc(-c9cc(F)ccc9O)nnc8NC[C@H]7C6)CC5)CC4)cc3C2=O)C(=O)N1` (stereo partly drawn) [Example 282, 3-(6-(4-((4-((S)-2-(5-fluoro-2-hydroxyphenyl)-6,6a,7,8,9,10-hexahydro-5H-pyrazino[1′,2′:4,5]pyrazino[2,3-c]pyridazine-8-carbonyl)piperazin-1-yl)methyl)piperidin-1-yl)-1-oxoisoindolin-2-yl)piperidine-2,6-dione], in assay [1], the 50% degradation concentration (DC50) was below 10 nM and the Dmax is above 85%. In addition, in assay [2], the DC50 was below 10 nM and the greatest degradation seen (Dmax) is 75 to 85%.

As for `CC1(C)CN(c2ccc3c(c2)C(=O)N(C2CCC(=O)NC2=O)C3=O)CCC1CN1CCC(CN2CCN3c4cc(-c5ccccc5O)nnc4NC[C@H]3C2)CC1` (stereo partly drawn) [Example 88, 2-(2,6-dioxopiperidin-3-yl)-5-(4-((4-(((S)-2-(2-hydroxyphenyl)-5,6,6a,7,9,10-hexahydro-8H-pyrazino[1′,2′:4,5]pyrazino[2,3-c]pyridazin-8-yl)methyl)piperidin-1-yl)methyl)-3,3-dimethylpiperidin-1-yl)isoindoline-1,3-dione], the 50% degradation concentration (DC50) in assay [1] and in assay [2] was below 10 nM in each case. For the same compound, the Dmax in assay [1] and in assay [2] was above 85% in each case.

As to `CN(CCN1CCC(N2CCN3c4cc(-c5ccccc5O)nnc4NC[C@H]3C2)CC1)C1CCN(c2ccc3c(c2)C(=O)N(C2CCC(=O)NC2=O)C3=O)CC1` (stereo partly drawn) [Example 158, 2-(2,6-dioxopiperidin-3-yl)-5-(4-((2-(4-((S)-2-(2-hydroxyphenyl)-5,6,6a,7,9,10-hexahydro-8H-pyrazino[1′,2′:4,5]pyrazino[2,3-c]pyridazin-8-yl)piperidin-1-yl)ethyl)(methyl)amino)piperidin-1-yl)isoindoline-1,3-dione], in assay [1], the DC50 is below 10 nM and the Dmax is above 85%. In assay [2], the half-maximal degradation concentration (DC50) is below 10 nM and the Dmax was above 85%.

As for `O=C1CCC(N2C(=O)c3ccc(N4CC[C@H](CN5CCN(C(=O)N6CCN7c8cc(-c9ccccc9O)nnc8NC[C@H]7C6)CC5)[C@@H](F)C4)cc3C2=O)C(=O)N1` (stereo partly drawn) [Example 206, 2-(2,6-dioxopiperidin-3-yl)-5-[(3R,4R)-3-fluoro-4-[[4-[(10S)-4-(2-hydroxyphenyl)-1,5,6,8,12-pentazatricyclo [8.4.0.02,7]tetradeca-2(7),3,5-triene-12-carbonyl]piperazin-1-yl]methyl]piperidin-1-yl]isoindole-1,3-dione], the half-maximal degradation concentration (DC50) in assay [1] is below 10 nM; in assay [2], 10 to 100 nM. The maximal degradation (Dmax) in assay [1] was above 85%; in assay [2] it was 50 to 75%.

As to `O=C1CCC(N2C(=O)c3ccc(N4CCC(CN5CCC(F)(CN6CCN7c8cc(-c9ccccc9O)nnc8NC[C@H]7C6)CC5)CC4)cc3C2=O)C(=O)N1` (stereo partly drawn) [Example 175, 2-(2,6-dioxopiperidin-3-yl)-5-[4-[[4-fluoro-4-[[(10S)-4-(2-hydroxyphenyl)-1,5,6,8,12-pentazatricyclo[8.4.0.02,7]tetradeca-2,4,6-trien-12-yl]methyl]piperidin-1-yl]methyl]piperidin-1-yl]isoindole-1,3-dione], in assay [1], the DC50 was below 10 nM and the Dmax was above 85%. In assay [2], the half-maximal degradation concentration (DC50) is below 10 nM and the greatest degradation seen (Dmax) was above 85%.

With `O=C1CCC(N2C(=O)c3ccc(N4CCC(CN5CCC(CCCN6CCN7c8cc(-c9ccccc9O)nnc8NC[C@H]7C6)CC5)CC4)cc3C2=O)C(=O)N1` (stereo partly drawn) [Example 228, 2-(2,6-dioxopiperidin-3-yl)-5-(4-((4-(3-((S)-2-(2-hydroxyphenyl)-5,6,6a,7,9,10-hexahydro-8H-pyrazino[1′,2′:4,5]pyrazino[2,3-c]pyridazin-8-yl)propyl)piperidin-1-yl)methyl)piperidin-1-yl)isoindoline-1,3-dione], in assay [1], the DC50 is below 10 nM and the maximal degradation (Dmax) is above 85%. Further, in assay [2], the DC50 is below 10 nM and the greatest degradation seen (Dmax) was above 85%.

Consider `CC1CN(C(=O)N2CCN3c4cc(-c5ccccc5O)nnc4NC[C@H]3C2)CCN1CC1CCN(c2ccc3c(c2)C(=O)N(C2CCC(=O)NC2=O)C3)CC1` (stereo partly drawn) [Example 106, 3-(6-(4-((4-((S)-2-(2-hydroxyphenyl)-6,6a,7,8,9,10-hexahydro-5H-pyrazino[1′,2′:4,5]pyrazino[2,3-c]pyridazine-8-carbonyl)-2-methylpiperazin-1-yl)methyl)piperidin-1-yl)-1-oxoisoindolin-2-yl)piperidine-2,6-dione], for which, in assay [1], the DC50 was below 10 nM and the maximal degradation (Dmax) is above 85%. Moreover, in assay [2], the half-maximal degradation concentration (DC50) is below 10 nM and the Dmax lay in the range of 75 to 85%.

In the case of `O=C1CCC(N2C(=O)c3ccc(N4CC(CCN5CCC(CN6CCN7c8cc(-c9ccccc9O)nnc8NC[C@H]7C6)CC5)C4)cc3C2=O)C(=O)N1` (stereo partly drawn) [Example 275, 2-(2,6-dioxopiperidin-3-yl)-5-(3-(2-(4-(((S)-2-(2-hydroxyphenyl)-5,6,6a,7,9,10-hexahydro-8H-pyrazino[1′,2′:4,5]pyrazino[2,3-c]pyridazin-8-yl)methyl)piperidin-1-yl)ethyl)azetidin-1-yl)isoindoline-1,3-dione], in assay [1], the DC50 was below 10 nM and the Dmax was 75 to 85%. For the same compound, in assay [2], the DC50 is below 10 nM and the maximal degradation (Dmax) was 75 to 85%.

Take `O=C1CCC(N2Cc3ccc(C4CCN(CCCN5CCC(CN6CCN7c8cc(-c9ccccc9O)nnc8NC[C@H]7C6)CC5)CC4)cc3C2=O)C(=O)N1` (stereo partly drawn) [Example 122, 3-(6-(1-(3-(4-(((S)-2-(2-hydroxyphenyl)-5,6,6a,7,9,10-hexahydro-8H-pyrazino[1′,2′:4,5]pyrazino[2,3-c]pyridazin-8-yl)methyl)piperidin-1-yl)propyl)piperidin-4-yl)-1-oxoisoindolin-2-yl)piperidine-2,6-dione]: the 50% degradation concentration (DC50) in assay [1] and in assay [2] was 10 to 100 nM throughout. Further, the results for the Dmax in assay [1] and in assay [2] were above 85% and 75 to 85%, respectively.

Turning to `CN(CCCCN1CCC(CN2CCN3c4cc(-c5ccccc5O)nnc4NC[C@H]3C2)CC1)c1ccc2c(c1)C(=O)N(C1CCC(=O)NC1=O)C2=O` (stereo partly drawn) [Example 227, 2-(2,6-dioxopiperidin-3-yl)-5-((4-(4-(((S)-2-(2-hydroxyphenyl)-5,6,6a,7,9,10-hexahydro-8H-pyrazino[1′,2′:4,5]pyrazino[2,3-c]pyridazin-8-yl)methyl)piperidin-1-yl)butyl)(methyl)amino)isoindoline-1,3-dione], in assay [1], the 50% degradation concentration (DC50) was below 10 nM and the Dmax lay in the range of 50 to 75%. Moreover, in assay [2], the DC50 lay in the range of 10 to 100 nM and the greatest degradation seen (Dmax) lay in the range of 50 to 75%.

For `O=C1CCC(N2C(=O)c3ccc(N4CC[C@H](CN5CCC(CN6CCN7c8cc(-c9ccccc9O)nnc8NC[C@H]7C6)CC5)[C@H](F)C4)cc3C2=O)C(=O)N1` (stereo partly drawn) [Example 185, 2-(2,6-dioxopiperidin-3-yl)-5-[(3S,4R)-3-fluoro-4-[[4-[[(10S)-4-(2-hydroxyphenyl)-1,5,6,8,12-pentazatricyclo[8.4.0.02,7]tetradeca-2(7),3,5-trien-12-yl]methyl]piperidin-1-yl]methyl]piperidin-1-yl]isoindole-1,3-dione], in assay [1], the DC50 was below 10 nM and the greatest degradation seen (Dmax) lay within 75 to 85%. Moreover, in assay [2], the DC50 is below 10 nM and the greatest degradation seen (Dmax) was in the range of 50 to 75%.

As usually defined, the DC50 is the midpoint of the concentration-degradation curve. By Dmax is commonly meant the greatest extent of degradation seen.
